± gives the expanded uncertainty stated by the source.
experiment: activity coefficient (dimensionless); of the first substance listed, at infinite dilution; xn = mol fraction of the nth substance listed; conditions: 298.15 K; 238 kPa; Liquid; Chromatography; x1 = 0

Question: Which activity coefficient does the source give for CCCCCCCC [octane] + CC#N here?
Answer: 52.3 ± 4.5

Question: For CCCCCCCC [octane] + CC(C)=O, which activity coefficient is on record?
Answer: 10.7 ± 0.9

Question: Which activity coefficient does the source give for Cc1ccccc1 [toluene] + CC#N here?
Answer: 3.95 ± 0.34

Question: For Cc1ccccc1 [toluene] + CC(C)=O, which activity coefficient is on record?
Answer: 2.01 ± 0.17

— the NIST ThermoML archive (doi:10.1016/j.jct.2015.12.034)
